Experimental data published in BindingDB's records for doi:10.1021/jm701164t (Irbm-Mrl, 2008).
pIC50: −log10 of the molar value.

Target: Gag-Pol polyprotein (Human immunodeficiency virus type 1 group M subtype B (isolate HXB2), UniProt P04585)
Assay: Microtiter Plate Assay for Strand Transfer
Details: pH 7.8; 37 °C
Procedure: The microtiter plate assay for stand transfer was performed with an immobilized donor substrate and a target substrate biotinylated at the 3-prime end of each DNA strand. Integrase was first assembled with immobilized LTR oligonucleotides for 30 min. Inhibitors were added after assembly and washings. For the strand transfer reaction, it was initiated with the addition of the biotinylated target substrate. Strand transfer reaction mixtures were incubated for additional 30 min, and the strand transfer products were detected by using alkaline phosphatase-conjugated avidin (Boehringer Mannheim, Indianapolis, Ind.).

CC(c1nc(C(=O)NCc2ccc(F)cc2)c(O)c(=O)[nH]1)N(C)C (stereo unspecified) [JMC496646 Compound 11]
pIC50: 7.00
